In patent EP0902088A2, “Peptides with antiproliferative properties” (Radulescu, Razvan T., priority 1996, dated 1999):
“Also recorded” adds a separate entry of the source.

Assays:
K562-Zellen = assay: Cytotoxicity by trypan blue counting in K562 leukaemia cells; type: cell-based; settings: asynchronous K562 in RPMI with 10 % FCS, peptide 10^-5M, several time points
From the text: Fig. 13 zeigt, daß der zytotoxische Effekt des erfindungsgemäßen Peptids P3 [10^-5M] auf asynchrone K562-Zellen, die in RPMI-Zellkulturmedium mit 10 % FCS inkubiert wurden, zeitabhängig ist. Die Ergebnisse wurden aufgetragen als lebende mit P3 behandelte Zellen als Prozent der lebenden mit P3 nicht behandelten Zellen. Die Zahl der lebenden Zellen wurde ermittelt, indem man mindestens 200 Zellen mit der Trypanblaumethode zu jedem angegebenen Zeitpunkt auszählte.
(§1) Die zweite Versuchsanordnung betrifft die Leukämie-Zell-Linien K562 und CCRF-CEM und CCRF-CEM/ACT400. Hierbei wurden jeweils 100.000 asynchrone Zellen/well/ml RPMI/10% FCS für 48 Stunden mit den jeweiligen Peptiden in 6-well-Platten inkubiert. Als Readout gilt die Anzahl der mit Hilfe der Trypanblaufärbung (L.D. Attardi et al., The EMBO Journal, 1996, Vol. 15, No. 14, pp. 3693-3701 und M.K. Reeder & H.C. Isom, Cell Growth & Differentiation, 1996, Vol. 7, pp. 449-460) nach 48 Stunden Inkubationszeit festgestellten toten Zellen/200 ausgezählte Zellen. Je mehr tote Zellen, desto zytotoxischer das Peptid und damit umso effektiver.

CCRF-CEMsensitiv = assay: Cytotoxicity by trypan blue counting in CCRF-CEM (sensitive) leukaemia cells; type: cell-based; settings: asynchronous CCRF-CEM (sensitive) in RPMI with 10 % FCS; peptide 10^-5
From the text: as §1

[1] = test system: normale humane mononukleäre Zellen des peripheren Blutes; assay: Effect on normal peripheral blood mononuclear cells; type: cell-based, human; settings: peptide 10^-5, 24 h incubation
From the text: Fig. 15 zeigt, daß das erfindungsgemäße Peptid P3 [10^-5] keinen Effekt auf normale humane mononukleäre Zellen des peripheren Blutes hat, unabhängig davon, ob diese sich in einem ruhenden (a) oder aktivierten (b) Zustand befinden. […] Die Inkubation der Zellen mit P3 erfolgte für einen Zeitraum von 24 Stunden.

SAOS-2-Zellen = assay: Cell cycle analysis by FACS in SAOS-2 osteosarcoma cells; type: cell-based, human
From the text: (§2) Die eine Versuchsanordnung beinhaltet Versuche mit der humanen intaktes Retinoblastomprotein enthaltenden Mammakarzinom-Zell-Linie MCF-7 bzw. der humanen defektes Retinoblastomprotein enthaltenden Osteosarkom-Zell-Linie SAOS-2. Man sät die Zellen zuerst in 12-well-Platten 100.000 (= Hunderttausend) Zellen/-well/ml RPMI oder DMEM/10% FCS) aus, läßt sie 24 Stunden adhärieren, hungert sie anschließend 3 Tage in DMEM ohne FCS mit dem Zweck, die Zellen in der G0/G1-Phase zu synchronisieren, und stimuliert sie dann entweder mit 10% FCS oder 10^-8 M IGF-1 oder 10^-6 M Insulin für 24 Stunden, wobei der Effekt der jeweils zugegebenen Peptide auf die jeweilige Stimulation, die ein Maß für die Zellteilungsrate ist, untersucht wird. Die Kontrollgruppe (G0/G1-synchronisierte Zellen) wird zum Zeitpunkt 0 nach der dreitägigen Hungerphase fixiert, die restlichen Zellen (+/- Peptid) werden nach 24 Stunden fixiert. Daraufhin werden die Zellen zwecks Zellzyklusanalyse im FACS analysiert. Analoge Methoden finden sich beispielsweise bei R. Fahraeus et al., Current Biology, 1996, Vol. 6, No. 1, pp 84-91 sowie bei L. Zhu et al., Genes & Development, 1993, Vol. 7, pp. 1111-1125.

MCF-7-Zellen = assay: Cell cycle analysis by FACS in MCF-7 breast carcinoma cells; type: cell-based, human
From the text: as §2, with “[…],” for “hungert sie anschließend 3 Tage in DMEM ohne FCS mit dem Zweck, die Zellen in der G0/G1-Phase zu synchronisieren,”

[2] = test system: CCRF-CEM/ACT 400resistent-Zellen; assay: Cytotoxicity by trypan blue counting in CCRF-CEM/ACT 400 (resistant) leukaemia cells; type: cell-based; settings: asynchronous CCRF-CEM/ACT 400 (resistant) in RPMI with 10 % FCS; peptide 10^-5
From the text: as §1

[3] = G0/G1-synchronised SAOS-2 cells, serum-free, peptide 10^-5M
[4] = SAOS-2 stimulated with 10 % FS, peptide 10^-5M
[5] = G0/G1-synchronised MCF-7 cells, serum-free, peptide 10^-5M
[6] = MCF-7 stimulated with EGF 10^-8, peptide 10^-5M
[7] = MCF-7 stimulated with IGF-1 10^-8M, peptide 10^-5M
[8] = MCF-7 stimulated with Östradiol (E2) 10^-9M, peptide 10^-5M
[9] = asynchronous MCF-7 in DMEM with 10 % FCS, peptide 10^-5M
[10] = SAOS-2 stimulated with 10 % FCS, peptide 5 x 10^-5M
[11] = MCF-7 stimulated with Insulin 10^-6M, peptide 10^-5M

CC(C)C[C@@H](N)C(=O)N[C@H](Cc1ccccc1)C(=O)N[C@H](Cc1ccc(O)cc1)C(=O)N[C@H](CCCCN)C(=O)N[C@H](CCCCN)C(=O)N[C@@H](C(=O)NCC(=O)NCC(=O)NCC(=O)NCCCC[C@H](NC(=O)CNC(=O)CNC(=O)CNC(=O)[C@H](NC(=O)[C@@H](CCCCN)NC(=O)[C@@H](CCCCN)NC(=O)[C@@H](Cc1ccc(O)cc1)NC(=O)[C@@H](Cc1ccccc1)NC(=O)[C@H](N)CC(C)C)C(C)C)C(=O)N[C@H](CCCNC(=N)N)C(=O)NCC(=O)NCCCC[C@H](NC(=O)CNC(=O)[C@@H](CCCNC(=N)N)NC(=O)[C@H](CCCCNC(=O)CNC(=O)CNC(=O)CNC(=O)[C@H](NC(=O)[C@@H](CCCCN)NC(=O)[C@@H](CCCCN)NC(=O)[C@@H](Cc1ccc(O)cc1)NC(=O)[C@@H](Cc1ccccc1)NC(=O)[C@H](N)CC(C)C)C(C)C)NC(=O)CNC(=O)CNC(=O)CNC(=O)[C@H](NC(=O)[C@@H](CCCCN)NC(=O)[C@@H](CCCCN)NC(=O)[C@@H](Cc1ccc(O)cc1)NC(=O)[C@@H](Cc1ccccc1)NC(=O)[C@H](N)CC(C)C)C(C)C)C(=O)NCC(=O)O)C(C)C (racemic) [P3, NH2-[dL-dF-dY-dK-dK-dV-GGG]4-[lK-dR-G]2-lK-G-COOH]
zytotoxische Effekt (lebende mit P3 behandelte Zellen als Prozent der lebenden mit P3 nicht behandelten Zellen) (K562-Zellen): zeitabhängig | zytotoxischer Effekt (CCRF-CEMsensitiv): zytotoxisch | Effekt auf normale humane mononukleäre Zellen des peripheren Blutes ([1]; activated state (b)): keinen Effekt | morphologische Veränderungen ([1]; resting or activated cells): keine morphologischen Veränderungen | Effekt auf normale humane mononukleäre Zellen des peripheren Blutes ([1]; resting state (a)): keinen Effekt | G1-Phase (SAOS-2-Zellen; [3]): vermindert | G2-Phase (SAOS-2-Zellen; [3]): erhöht | Morphologie der behandelten Zellen (SAOS-2-Zellen; [3]): entspricht der apoptotischer Zellen | S-Phase (SAOS-2-Zellen; [3]): erhöht | G1-Phase (SAOS-2-Zellen; [4]): Zunahme | Morphologie der behandelten Zellen (SAOS-2-Zellen; [4]): entspricht der apoptotischer Zellen | S-Phase (SAOS-2-Zellen; [4]): Abnahme | G1-Phase (MCF-7-Zellen; [5]): vermindert | Morphologie der behandelten Zellen (MCF-7-Zellen; [5]): entspricht der apoptotischer Zellen | S-Phase (MCF-7-Zellen; [5]): erhöht | G1-Phase (MCF-7-Zellen; [6]): Zunahme | G2-Phase (MCF-7-Zellen; [6]): Zunahme | Morphologie der behandelten Zellen (MCF-7-Zellen; [6]): entspricht der apoptotischer Zellen | S-Phase (MCF-7-Zellen; [6]): Abnahme | Morphologie der behandelten Zellen (MCF-7-Zellen; MCF-7 stimulated with IGF-1 10^-8M, peptide 5 x 10^-6M): entspricht jeweils der apoptotischer Zellen | G1-Phase (MCF-7-Zellen; [7]): Zunahme | G2/M-Phase (MCF-7-Zellen; [7]): Zunahme | Morphologie der behandelten Zellen (MCF-7-Zellen; [7]): entspricht jeweils der apoptotischer Zellen | S-Phase (MCF-7-Zellen; [7]): Abnahme | durch IGF-1 [10^-8M] bedingte Fortschreiten des Zellzyklus (MCF-7-Zellen; MCF-7 stimulated with IGF-1 10^-8M, several peptide concentrations (Fig. 7)): in einer konzentrationsabhängigen Weise blockiert | G1-Phase (MCF-7-Zellen; [8]): Zunahme | G2-Phase (MCF-7-Zellen; [8]): Zunahme | Morphologie der behandelten Zellen (MCF-7-Zellen; [8]): entspricht der apoptotischer Zellen | S-Phase (MCF-7-Zellen; [8]): Abnahme | G1-Phase (MCF-7-Zellen; [9]): vermindert | Morphologie der behandelten Zellen (MCF-7-Zellen; [9]): entspricht der apoptotischer Zellen | S-Phase (MCF-7-Zellen; [9]): erhöht | zytotoxischer Effekt [2]: zytotoxisch

CC(C)C[C@@H](NC(=O)[C@H](NC(=O)[C@H](N)CCCCN)C(C)C)C(=O)N[C@H](Cc1ccc(O)cc1)C(=O)N[C@H](Cc1ccccc1)C(=O)N[C@H](CCCCN)C(=O)NCC(=O)NCC(=O)NCC(=O)NCCCC[C@H](NC(=O)CNC(=O)CNC(=O)CNC(=O)[C@@H](CCCCN)NC(=O)[C@@H](Cc1ccccc1)NC(=O)[C@@H](Cc1ccc(O)cc1)NC(=O)[C@@H](CC(C)C)NC(=O)[C@H](NC(=O)[C@H](N)CCCCN)C(C)C)C(=O)N[C@H](CCCNC(=N)N)C(=O)NCC(=O)NCCCC[C@H](NC(=O)CNC(=O)[C@@H](CCCNC(=N)N)NC(=O)[C@H](CCCCNC(=O)CNC(=O)CNC(=O)CNC(=O)[C@@H](CCCCN)NC(=O)[C@@H](Cc1ccccc1)NC(=O)[C@@H](Cc1ccc(O)cc1)NC(=O)[C@@H](CC(C)C)NC(=O)[C@H](NC(=O)[C@H](N)CCCCN)C(C)C)NC(=O)CNC(=O)CNC(=O)CNC(=O)[C@@H](CCCCN)NC(=O)[C@@H](Cc1ccccc1)NC(=O)[C@@H](Cc1ccc(O)cc1)NC(=O)[C@@H](CC(C)C)NC(=O)[C@H](NC(=O)[C@H](N)CCCCN)C(C)C)C(=O)NCC(=O)O (racemic) [P7s, NH2-[dK-dV-dL-dY-dF-dK-GGG ]4-[lK-dR-G]2-lK-G-COOH]
G1-Phase (MCF-7-Zellen; [7]): Zunahme | G2/M-Phase (MCF-7-Zellen; [7]): Zunahme | Morphologie der behandelten Zellen (MCF-7-Zellen; [7]): entspricht der apoptotischer Zellen | S-Phase (MCF-7-Zellen; [7]): Abnahme

CC[C@H](C)[C@H](NC(=O)[C@H](CCCCN)NC(=O)[C@@H](NC(=O)[C@H](CCC(N)=O)NC(=O)[C@H](CCCNC(=N)N)NC(=O)[C@@H](NC(=O)[C@H](CCCCN)NC(=O)[C@H](CCCCN)NC(=O)[C@H](Cc1ccc(O)cc1)NC(=O)[C@H](Cc1ccccc1)NC(=O)[C@@H](N)CC(C)C)C(C)C)[C@@H](C)CC)C(=O)N[C@@H](Cc1c[nH]c2ccccc12)C(=O)N[C@@H](Cc1ccccc1)C(=O)N[C@@H](CCC(N)=O)C(=O)N[C@@H](CC(N)=O)C(=O)N[C@@H](CCCNC(=N)N)C(=O)N[C@@H](CCCNC(=N)N)C(=O)N[C@@H](CCSC)C(=O)N[C@@H](CCCCN)C(=O)N[C@@H](Cc1c[nH]c2ccccc12)C(=O)N[C@@H](CCCCN)C(=O)N[C@@H](CCCCN)C(=O)O [P6, NH2-LFYKKVRQIKIWFQNRRMKWKK-COOH]
G1-Phase (SAOS-2-Zellen; [10]): Zunahme | S-Phase (SAOS-2-Zellen; [10]): Abnahme | G1-Phase (MCF-7-Zellen; [5]): vermindert | Morphologie der behandelten Zellen (MCF-7-Zellen; [5]): entspricht der apoptotischer Zellen | S-Phase (MCF-7-Zellen; [5]): steigert | G1-Phase (MCF-7-Zellen; [7]): Zunahme | Morphologie der behandelten Zellen (MCF-7-Zellen; [7]): entspricht der apoptotischer Zellen | S-Phase (MCF-7-Zellen; [7]): Abnahme; also recorded: vermindern | S-Phase (MCF-7-Zellen; [11]): vermindern

H-LFYKKVPKKKRKV-OH [P5, NH2-L-F-Y-K-K-V-P-K-K-K-R-K-V-COOH]
G1-Phase (SAOS-2-Zellen; [10]): Zunahme | S-Phase (SAOS-2-Zellen; [10]): Abnahme | G1-Phase (MCF-7-Zellen; [5]): vermindert | S-Phase (MCF-7-Zellen; [5]): steigert | S-Phase (MCF-7-Zellen; [7]): vermindern | S-Phase (MCF-7-Zellen; [11]): vermindern

NH2-KVLYFKRQIKIWFQNRRMKWKK-COOH (H-KVLYFKRQIKIWFQNRRMKWKK-OH) [P8]
G1-Phase (MCF-7-Zellen; [7]): Zunahme | G2/M-Phase (MCF-7-Zellen; [7]): Zunahme | Morphologie der behandelten Zellen (MCF-7-Zellen; [7]): entspricht der apoptotischer Zellen | S-Phase (MCF-7-Zellen; [7]): Abnahme

Penetratin [reference compound]
Bremsen der Zellzyklusprogression von SAOS-2-Zellen (SAOS-2-Zellen; Tab 2, SAOS-2 stimulated with 10 % FCS): nicht | S-Phase (MCF-7-Zellen; [7]): keinen Effekt | S-Phase (MCF-7-Zellen; [11]): keinen Effekt
